According to patent US6172205A, “Synthetic process toward total synthesis of eleutherobin and its analogues and uses thereof” (The Trustees of Columbia in the City of New York, priority 1998, dated 2001):
Entries after “also recorded” stand apart in the source; their conditions may differ.

Tests used:
[1] = test system: tubulin / microtubule protein; test: Tubulin polymerization by turbidity at 350 nm in the absence of GTP; assay type: biochemical, calf; conditions: 10 μM, relative to eleutherobin
Description: Eleutherobin and its derivatives were synthesized as described (18,19). Taxol was obtained from the Drug Development Branch, National Cancer Institute (Bethesda, Md.). All compounds were dissolved in dimethyl sulfoxide (Sigma Chemical Co., St. Louis, Mo.) at stock concentrations of 5 mM and stored at -20° C. All control samples contained an equal volume of DMSO. GTP was obtained from Sigma Chemical Co. And dissolved in sterile distilled water at a concentration of 10 mM and stored at -20° C. Microtubule protein was purified from calf brains by two cycles of temperature-dependent assembly and disassembly (20) and stored in liquid nitrogen prior to use. The anti-mouse β-tubulin monoclonal antibody T-4026 was obtained from Sigma Chemical Co.
The ability of each compound to polymerize tubulin was evaluated by recording the change in turbidity of microtubule protein at 350 nm for 80 min in a spectrophotometer (UVIKON, Research Instruments Int., SD, Calif.). One mg of purified microtubule protein was diluted in assembly buffer containing 0.1 M MES, 1 mM EGTA, 0.5 mM MgCl2 and 3 M glycerol, pH 6.6. All compounds were evaluated at a concentration of 10 μM at 37° C. […] Microtubule stability was assessed by the addition of 10 mM Ca^++. changes from t=0-10 min were used to calculate initial slopes from the linear portion of each curve. These values were used to calculate the activity of each compound (relative to the activity of Taxol which was assigned a value of 100%).
The polymerization activity of these compounds was also assessed by determining the slope of the linear portion of each curve at A350 nm (t=0-10 min), and expressing this relative to Taxol (which was assigned a value of 100% (FIG. 8). The order of activity of eleutherobin and derivatives using this method, corroborates the results obtained from cytotoxicity studies.

[2] = test system: A549-T12 (Taxol-resistant A549); test: Cytotoxicity by counting cells after 72 h, Taxol-resistant cells; assay type: cell-based, human
Description: (§1) Human non-small cell lung carcinoma cells, A549, were maintained in RPMI 1640 containing 10% fetal bovine serum and 1% penicillin-streptomycin (Gibco Laboratories, Grand Island N.Y.) at 37° C. in 7% CO2. The Taxol-resistant cell line A549-T12 was selected for resistance to Taxol and maintained in a final concentration of 12 nM drug (21). Human ovarian carcinoma cells SKOV3 and the MDR variant SKVBL (obtained from Dr. V. Ling) were maintained in α-mem plus ribonucleotides, deoxynucleotides, 15% fetal bovine serum and 1% penicillin-streptomycin (Gibco Laboratories) at 37° C. in 5% CO2. SKVBL cells were maintained in […] vinblastine (Sigma Chemical Co.).
(§2) Taxol-resistant and sensitive cell lines were seeded into 12-well plates at a density of 5×10^4 cells per well and allowed a period of 12 h for attachment prior to treatment. Cells were exposed to 10-fold serial dilutions of each compound (10^-10 to 10^-6 M) for 72 h. Cells were then trypsinized and counted (Coulter counter model ZF0031, Coulter Corp., Miami, Fla.). The IC50 was determined by plotting cell number against log of the drug concentration and this was used to determine the concentration of compound resulting in 50% growth inhibition compared to untreated cells. Each cell line was assayed in a minimum of 3 independent experiments with each compound and the results expressed as the mean IC50.
(§3) The cytotoxic efficacy of eleutherobin and its derivatives (FIG. 6) was evaluated in two drug sensitive human cancer cell lines and their Taxol-resistant counterparts. The results are summarized in Table I in order of decreasing potency. […] The Taxol-resistant cell line SKVBL overexpresses high levels of P-glycoprotein (22). […] The only difference between the two agents is the enantiomeric relationship in the carbohydrate (2'-acetylarabinose) sector (FIG. 6). […] This cell line expressed high levels of MDR1 resulting in Taxol-resistance equal or greater than 1666 -fold compared to the Taxol-sensitive SKOV3 cell line.
(§4) ^a Cytotoxicity determined by counting cells after 72 h drug exposure.

P-glycoprotein = P-glycoprotein substrate behaviour inferred from resistance of SKVBL cells; assay type: cell-based, human
Description: as §1, §2, §3

[3] = test system: cellular microtubules, NIH 3T3 cells; test: Microtubule bundle formation by immunofluorescence; assay type: cell-based; conditions: 2 μM, 5.5 h, 37 °C
Description: FIG. 9 immunofluorescence images NIH3T3 cells labeled with β-tubulin antibody following exposure to different drugs. A)DMSO; B)2 μM Taxol; C)2 μM eleutherobin; D)2 μM neo-eleutherobin; E)2 μM SKBII.294; F)2 μM SKBIII.13.
Illustrates the effects of eleutherobin and its derivatives on the morphology of cellular microtubules following exposure of cells to 2 μM of each compound for 5.5 h at 37° C. […] The number of micotic asters correlated with the extent of microtubule bundling in interphase cells.
(§5) NIH 3T3 cells were grown to subconfluency on glass converslips in 35 mm plastic petri dishes. Cells were exposed to 2 μM of Taxol and each of the experimental compounds for 5.5 h at 37° C., rinsed twice in PBS and extracted with 0.5% Triton-X-100 in microtubule stabilizing buffer (PEM) (100 mM PIPES, 2 mM EGTA and 2 mM MgCl2, pH 6.8) for 4 min. Following a wash in PEM, the cells were fixed for 40 min at room temperature in 3% formaldehyde in PEM followed by incubation in 0.1 M glycine in PBS for 10 min and washing (four times) in PEM containing 5 μM EGTA. Following blocking in 20% normal goat serum (NGS) for 30 min at room temperature, cells were incubated for 1 h at 37° C. with a 1:100 dilution of β-tubulin mAb diluted in 10% NGS, washed twice in 1% BSA, once in PBS and three times in 1% BSA. Cells were then incubated in a 1:200 dilution of the secondary fluorophore antibody, IndocarbocyanineCY3 (Jackson Immunoresearch Laboratories Inc., Pa.) in 20% NGS for 20 min at room temperature. Finally cells were washed three times in 1% BSA and the dried slides mounted in 30% glycerol in PBS containing […]-phenylene diamine (1 mg/ml). Fixed slides were examined using a Zeiss Axioskop microscope.

[4] = test system: Human non-small cell lung carcinoma cells, A549; test: Cytotoxicity by counting cells after 72 h, Taxol-sensitive cells; assay type: cell-based; conditions: for IC50: Homo sapiens, A549, 72 h; for cytotoxicity (in words): sensitive cell lines (A549, SKOV3)
Description: Taxol-resistant and sensitive cell lines were seeded into 12-well plates at a density of 5×10^4 cells per well and allowed a period of 12 h for attachment prior to treatment. […] Cells were then trypsinized and counted (Coulter counter model ZF0031, Coulter Corp., Miami, Fla.).

[5] = SKBII.294 and 298 structures compared; cited from earlier work
[6] = test system: Human ovarian carcinoma cells SKOV3; test: Cytotoxicity by counting cells after 72 h, Taxol-sensitive cells; assay type: cell-based; conditions: SK-OV-3, 72 h
Description: as §1, §2, §4

[7] = Solubility compared to eleutherobin; assay type: physicochemical
[8] = test system: SKVBL (MDR variant of SKOV3); test: Cytotoxicity by counting cells after 72 h, MDR variant cells; assay type: cell-based, human
Description: as §1, §2, §3, §4

[9] = Overall biological activity, all parameters tested
Description: as §2
The ability of each compound to polymerize tubulin was evaluated by recording the change in turbidity of microtubule protein at 350 nm for 80 min in a spectrophotometer (UVIKON, Research Instruments Int., SD, Calif.). One mg of purified microtubule protein was diluted in assembly buffer containing 0.1 M MES, 1 mM EGTA, 0.5 mM MgCl2 and 3 M glycerol, pH 6.6. All compounds were evaluated at a concentration of 10 μM at 37° C. GTP was used at a final concentration of 1 mM. Microtubule stability was assessed by the addition of 10 mM Ca^++. changes from t=0-10 min were used to calculate initial slopes from the linear portion of each curve. These values were used to calculate the activity of each compound (relative to the activity of Taxol which was assigned a value of 100%).
as §5

CO[C@]12C=C[C@](C)(O1)[C@@H](OC(=O)/C=C/c1cn(C)cn1)C[C@H]1C(C)=CC[C@H](C(C)C)[C@H]1C=C2COC(C)=O [SKBII.294]
microtubule polymerization activity relative to eleutherobin [1]: 54% | fold resistance relative to the parental cell line ([2]; A549-T12 vs A549, 4320 min): 1.1 fold | IC50 ([2]; Homo sapiens, Lung Carcinoma A549, Resistant (A549-T12), 72 h, mean of at least three independent experiments): 162 nM | P-glycoprotein substrate (in words) (P-glycoprotein): considerably less attractive for P-glycoprotein compared to eleutherobin and neo-eleutherobin | microtubule bundle formation (in words) [3]: reduced bundle formation in cultured cells; also recorded: induced less bundle formation than neo-eleutherobin | IC50 [4]: 152 nM | cytotoxicity (in words) [4]: less cytotoxic than either eleutherobin or neo-eleutherobin; also recorded: more cytotoxic than to SKBII.296 | activity reported for compounds with the same structures (in words) [5]: equal activity | IC50 [6]: 307 nM | solubility (in words) [7]: reduced solubility compared to eleutherobin | IC50 ([8]; Homo sapiens, SK-OV-3, Ovarian Carcinoma SKOV3, Resistant (SKVBL), 72 h, mean of at least three independent experiments): 1040 nM | cross-resistance in SKVBL (in words) ([8]; MDR1 expressing cells, high P-glycoprotein): essentially not cross-resistant | fold resistance relative to the parental cell line ([8]; SKVBL vs SKOV3): 3.4 fold

CO[C@]12C=C[C@](C)(O1)[C@@H](OC(=O)/C=C/c1cn(C)cn1)C[C@H]1C(C)=CC[C@H](C(C)C)[C@H]1C=C2CO [SKBII.298]
microtubule polymerization activity relative to eleutherobin [1]: 36% | microtubule bundle formation (in words) [3]: induced less bundle formation than neo-eleutherobin | biological activity (in words) [9]: the least active compound in this sub-group | IC50 [4]: 1060 nM | cytotoxicity (in words) [4]: considerably less cytotoxic (in the μM range) | activity reported for compounds with the same structures (in words) [5]: equal activity | IC50 [6]: > 5000 nM | solubility (in words) [7]: reduced solubility compared to eleutherobin
